As a reminder, the EC50 is the concentration that produces a half-maximal response.

For 2 compounds, EC50 and TAAR4 activation results are on record in patent US20140221499A1, “NOVEL RODENT CONTROL AGENTS AND USES THEREOF” (priority 2011, published 2014).

Common to all, as to type: cell-based
The target in one assay is T1, rTAAR7b (Rattus norvegicus, UniProt Q923X8).
T1 sequence (Q923X8 1-358): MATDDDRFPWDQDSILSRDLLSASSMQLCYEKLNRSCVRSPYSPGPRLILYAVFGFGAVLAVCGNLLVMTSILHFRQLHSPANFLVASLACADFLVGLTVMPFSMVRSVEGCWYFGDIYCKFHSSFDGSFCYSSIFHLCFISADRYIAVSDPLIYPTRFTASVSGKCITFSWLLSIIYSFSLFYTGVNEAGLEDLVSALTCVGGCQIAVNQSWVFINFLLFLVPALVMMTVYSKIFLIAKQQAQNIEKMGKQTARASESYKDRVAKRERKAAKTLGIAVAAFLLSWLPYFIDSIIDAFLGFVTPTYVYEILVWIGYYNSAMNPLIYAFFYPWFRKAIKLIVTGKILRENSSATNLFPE
Briefly: CRE-SEAP reporter gene assay in HEK293 cells transfected with rTAAR7b. More on the design: Full Taar coding regions were cloned into pcDNA3.1; expressed in transfected cells; host or cells: HEK293. The note with it: FIG. 11A, rTAAR7b did not work with a 'Rho tag' (unmodified form), EC50 ± s.e.m., 4-parameter Hill equation. The method, then: (§1) FIG. 11 illustrates the dose-dependent responses of TAARs to amines. HEK293 cells were cotransfected with plasmids encoding CRE-SEAP and rTAARs (a) or mTAARs (b), incubated with concentrations of ligands indicated, and assayed for reporter activity (triplicates±s.d.). EC50 values (±s.e.m, bottom right) were calculated using SigmaPlot (Systat Software) and a 4-parameter Hill equation.
(§2) The following mixes (10 μM of each indicated compounds) were tested for their ability to activate rat TAARs. Mix 1: butylamine, dibutylamine, hexylamine. Mix 2: 2-aminopentane, isoamylamine, isobutylamine, isopropylamine. Mix 3: N,N-dimethylcyclohexylamine, 1-methylindole, tryptamine, phenylethylamine. Mix 4: indole, 1-methylpyrrolidine, 1-methylpiperidine, pyrrolidine. […]
(§3) Full Taar coding regions were cloned into pcDNA3.1-(Invitrogen) with or without a 5′ DNA extension of 69 bp encoding the first 20 amino acids of bovine rhodopsin followed by a cloning linker ([…]). […] Fluorescence was measured on an EnVision plate reader (Perkin Elmer) and SEAP activity graphed as relative fluorescence of a phosphatase substrate.
(§4) Here, we set out to identify agonists for additional mouse and rat TAARs. […] Transfected cells were incubated with test chemicals, and phosphatase activity was quantified with a fluorescent substrate as a reporter for TAAR activation. […]
For orientation: A reporter such as luciferase makes a cellular process visible.

The next assay has as its target T2, rTAAR8c (Rattus norvegicus, UniProt Q923Y0).
T2 construct: Full Taar coding regions were cloned into pcDNA3.1; expressed in transfected cells; host or cells: HEK293
T2 sequence (Q923Y0 1-344): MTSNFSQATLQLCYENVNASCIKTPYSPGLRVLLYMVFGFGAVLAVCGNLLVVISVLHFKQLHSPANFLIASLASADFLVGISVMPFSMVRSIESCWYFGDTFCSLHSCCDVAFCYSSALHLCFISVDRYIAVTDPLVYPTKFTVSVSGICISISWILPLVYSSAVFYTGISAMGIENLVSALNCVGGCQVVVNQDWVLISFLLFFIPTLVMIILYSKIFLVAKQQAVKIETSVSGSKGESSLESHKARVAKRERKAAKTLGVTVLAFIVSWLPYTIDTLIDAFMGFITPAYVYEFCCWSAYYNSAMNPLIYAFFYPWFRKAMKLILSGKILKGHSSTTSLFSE
Nature of the assay: CRE-SEAP reporter gene assay in HEK293 cells transfected with rTAAR8c. The note with it: FIG. 11A, functional with or without 'Rho tag', EC50 ± s.e.m., 4-parameter Hill equation. The method, then: as §1, §2, §3, §4

Another assay concerns the target T3, mouse TAAR4 (Mus musculus, UniProt Q5QD15).
T3 construct: Full Taar coding regions were cloned into pcDNA3.1-(Invitrogen); expressed in transfected cells; host or cells: HEK293
T3 sequence (Q5QD15 1-347): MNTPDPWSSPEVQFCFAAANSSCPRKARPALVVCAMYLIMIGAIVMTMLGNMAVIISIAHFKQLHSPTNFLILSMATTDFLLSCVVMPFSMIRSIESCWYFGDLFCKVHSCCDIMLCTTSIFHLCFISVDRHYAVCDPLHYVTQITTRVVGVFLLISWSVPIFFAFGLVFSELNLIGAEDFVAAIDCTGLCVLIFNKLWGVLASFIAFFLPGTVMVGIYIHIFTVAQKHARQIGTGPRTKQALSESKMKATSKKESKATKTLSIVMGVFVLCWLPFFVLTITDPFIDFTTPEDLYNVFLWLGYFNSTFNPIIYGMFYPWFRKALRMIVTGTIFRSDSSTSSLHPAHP
Briefly: TAAR4 CRE-SEAP reporter gene assay in transfected HEK293 cells. Particulars: 10 μM.

Description for mouse TAAR4: HEK293 cells were co-transfected with TAAR expression plasmids and a cAMPdependent reporter gene encoding secreted alkaline phosphatase (CRE-SEAP). Transfected cells were incubated with urine extracts from different mammalian species, and phosphatase activity was quantified with a fluorescent substrate as a reporter for TAAR activation.
Test urines were diluted in serum-free media containing penicillin G (100 Units/ml, Invitrogen) and streptomycin sulfate (100 mg/ml, Invitrogen). SEAP activity is measured as fluorescence resulting from dephosphorylation of a substrate, 4-methylumbelliferyl phosphate. Fluorescence values were obtained using an EnVision plate reader (Perkin Elmer) and are reported directly without normalization.

In the case of `CN(C)C1CCCCC1` [N,N-DIMETHYLCYCLOHEXYLAMINE, N,N-dimethylcyclohexylamine], the EC50 at rTAAR7b turned out to be 33.2 ± 12.8 µM; on rTAAR8c, 0.55 ± 0.19 µM.

Consider `NCCc1ccccc1` [2-phenylethylamine], for which the TAAR4 activation entry at mouse TAAR4 is on record as “activates TAAR4”.
